# Assays:
# MDAMB468 cells = assay: CellTiter-Glo cell viability assay (MIC2-based PAX); details: MDAMB468, complexes at 50% (1:1) loading, three independent experiments
# Description: 2000 cells per well were seeded into white-opaque 384-well plates followed by overnight incubation in a humid chamber at 37° C. and 5% CO2. […] The assay was developed after 3 days if not otherwise stated using CellTiter-Glo Luminescent Cell Viability Assay as described in the manufacturer's protocol. In brief, the plates were equilibrated to room temperature for 30 minutes. 100 mL CellTiter-Glo Buffer were added to the CellTiter-Glo Substrate Flask and mixed well. 30 μL of the reagent was transferred to each well. After incubation for 3 minutes at room temperature while shaking at 550 rpm, the plate was incubated for another 10 minutes at room temperature. The luminescence was read on an Envision reader. The evaluation was performed using GraphPad Prism 8 by normalization of cells treated with sample to untreated cells. The data were fitted with 4 point logistic curve to determine the IC50 value.
# [1] = Storage stability of antibody-PROTAC complexes (DLS, SE-HPLC, visible changes); type: physicochemical; details: no storage time/temperature printed
# Description: Storage stability of antibody-PROTAC complexes was assessed after complexation (6 mg/ml, 650 rpm, 3 h, rt) by incubation in the fridge at 4° C. over 96 h as well as snap-freezing the complexes and storage at −80° C. for 24 h or at −20° C. at 96 h. Subsequently the samples were checked for visible changes, the polydispersity was assessed using DLS measurements and the loading was measured via SE-HPLC (Table 6). Samples with polydispersity up to 15% are considered monodisperse.
# MV411 cells = assay: CellTiter-Glo cell viability assay (VHH-based PAX); parameters: species or system human; details: MV411, PROTAC alone
# Description: Several cell viability experiments were performed following the procedure described below: Cells were seeded in different media into white cell culture-treated flat and clear bottom multiwell plates followed by overnight incubation in a humid chamber at 37° C. and 5% CO2. Complexation was performed as described in chapter 7.4.
# The solutions were added to the cells based on the antibody concentration using nanodrop dispension using a Tecan D300e Digital Dispenser and all wells were normalized to the same volume using 0.3% TW20 in PBS pH 7.4 and DMSO to a final solvent concentration of 0.05% DMSO and 0.003% TW20. Incubation was performed at 37° C. at 5% or 10% CO2 dependent on the medium. The assay was developed after 3 days if not otherwise stated using CellTiter-Glo Luminescent Cell Viability Assay as described in the manufacturer's protocol. In brief, the plates were equilibrated to room temperature for 30 minutes. 100 mL CellTiter-Glo Buffer were added to the CellTiter-Glo Substrate Flask and mixed well. 30 μL of the reagent was transferred to each well. After incubation for 3 minutes at room temperature while shaking at 550 rpm, the plate was incubated for another 10 minutes at room temperature. The luminescence was read on an Envision reader from Perkin Elmer. […]
# MV411 xenograft = MV411 xenograft efficacy study in female CB17 SCID mice; type: in vivo, mouse
# Description: Human leukemic MV411 cells were xenografted in immunocompromised mice. Three million MV411 cells were injected subcutaneously in the left flank of untreated female CB17 SCID mice. Randomization of the animals in the different treatment groups and the initiation of the treatment was started after the average tumor size reached 45 mm^2. The control groups were treated with vehicle. The test groups were treated with 0.38 mg/kg GNE987 and 30 mg/kg CD33xMIC7+GNE987 (loaded with 0.38 mg/kg GNE987) once (at day 1). Further, two groups were treated twice, either with 30 mg/kg CD33xMIC7+GNE987 (loaded with 0.38 mg/kg GNE987) at day 1 followed by treatment with 0.38 mg/kg GNE987 at day 8 or with 0.38 mg/kg GNE987 at day 1 and 8. Additionally, one group received 30 mg/kg CD33xMIC5+GNE987 (loaded with 0.38 mg/kg GNE987) once (at day 1) and another group received the antibody control 30 mg/kg CD33xMIC7 without PROTAC once (at day 1). The individual groups were stopped before tumors reached a maximum tumor size (225 mm^2) (FIG. 49).
# [2] = Pillow, T. H. et al., ChemMedChem 15 (2020) 17-25; cited from earlier work
# BRD4 = BRD4 (Homo sapiens, UniProt O60885); assay: BRD4 degradation, immunofluorescence imaging in MDA-MB-468 cells; type: cell-based; parameters: endogenous in cells; host or cells: MDA-MB-468; details: 4 nM, 43 h, relative to untreated cells
# Description: BRD4 was chosen as the model protein for the disclosed invention due to the strong pharmacological effect (cell death) that is induced upon degradation of BRD4. For the evaluation of targeted BRD4 degradation, MDA-MB-468 cells were seeded into a black 96 well clear bottom plates (10,000 cells/well) followed by incubation (37° C., 5% CO2) in a humid chamber overnight. Test compounds were added using a D300e digital dispenser (Tecan) and incubated for 43 h (37° C., 5% CO2, humid chamber). Cells were washed 3× with PBS, fixed in 2% (v/V) formaldehyde for 15 min at rt and washed again (3×). To permeabilize cells, 0.2% (v/V) Triton-X-100 was added for 10 min at rt and removed by washing with PBS (3×). Wells were blocked with 3% (w/v) BSA in PBS for 60 min at rt, washed trice, and cells were incubated with 2.3 μg/mL rabbit anti-BRD4 antibody (Abcam) diluted in 3% BSA/PBS for […] at 4° C. overnight. […] After a final washing step, cells were preserved in 0.1% (w/V) sodium azide and transferred to a Cytation 5 cell imaging reader (Biotek). […] For quantitative analysis of nuclear BRD4 levels, only the green fluorescence (AF488) co-localized with DAPI staining was counted. Green fluorescence was normalized to cell number and expressed relative to untreated cells.
compound,measurement,setting,value
Cc1ncsc1-c1ccc(CNC(=O)[C@@H]2C[C@@H](O)CN2C(=O)[C@@H](NC(=O)CCCCCCCCCCNC(=O)c2cc3c(cc2CS(C)(=O)=O)-c2cn(C)c(=O)c4[nH]cc(c24)CN3c2ncc(F)cc2F)C(C)(C)C)cc1 [GNE987],IC50,MDAMB468 cells,0.79 nM
same,Visible evaluation,[1],precipitation
same,IC50,MV411 cells,< 0.045 nM
same,day post re-dosing where tumors started to grow again,MV411 xenograft; 0.38 mg/kg GNE987 at day 1 and 8,~3 days
same,anti-tumor effect (in words),MV411 xenograft; dosed once at day 1,induced anti-tumor effects
same,day until which tumor growth was inhibited / tumors started to progress,MV411 xenograft; single dose at day 1 (0.38 mg/kg GNE987 or 30 mg/kg PAX),~4 days
same,half-life reported in literature,[2],2.8 h
same,remaining BRD4,BRD4,39.0%
